Publication PMC9658513, “Discovery of Compounds That Selectively Repress the Amyloidogenic Processing of the Amyloid Precursor Protein: Design, Synthesis and Pharmacological Evaluation of Diphenylpyrazoles” (International Journal of Molecular Sciences, 2022)

System: sAPPα
Assay: sAPPα secretion (MSD sAPPα/sAPPβ Multiplex Kit)
Type: cell-based, human
Conditions: concentration increasing sAPPα 1.5-fold vs untreated control
Description: A selection of compounds with several selected activities was performed including sAPPα and sAPPβ, which were further explored. […] The decrease in Aβ could result from a decrease in either β- or γ-secretase cleavage or an increase in the α-secretase cleavage of APP. Thus, medium concentrations of sAPPβ and sAPPα, which are the β- and α-secretase extramembrane shed APP fragments, were determined after cell drug treatments.
The human neuroblastoma cell line SY5Y-APP^695WT was maintained in Dulbecco’s modified Eagle medium (DMEM, high glucose, pyruvate—GIBCO, Life Technologies, Carlsbad, CA, USA) supplemented with 10% fetal bovine serum, 2 mM L-glutamine, 1 mM non-essential amino acids and penicillin/streptomycin (GIBCO, Life Technologies, Carlsbad, CA, USA) at 37 °C in a 5% CO2 humidified incubator [36]. For compound treatment, a 10 mM stock solution was diluted in freshly supplemented DMEM medium to obtain the precise final concentration of the drug. Cells were plated at a density of 5 × 10^5 cells per well into 12-well plates and cultured with 1 mL supplemented DMEM cell medium for 24 h before compound exposure. The following day, the cell medium was replaced with fresh medium containing the compounds diluted at the indicated concentrations. Cells were treated for 24 h. At the end of the treatments, the cell medium was collected and kept at −80 °C until use, cells were rinsed once with PBS and extracted in 100 µL of Laemmli buffer (10 mM Tris, 20% glycerol, and 2% sodium dodecyl sulfate) using a cell-scraper. […] Total protein concentration was determined using the Pierce BCA Protein Assay Kit (Thermo Scientific, Waltham, MA, USA) according to the manufacturer’s instructions. […]
Aβ1–40/Aβ1–42 peptides, Aβx–38/Aβx–40/Aβx–42, and sAPPα/sAPPβ concentrations in pg/mL were determined, respectively, using amyloid-beta 40 and 42 Human ELISA Kits (Invitrogen), the V-PLEX Plus Aβ Peptide Panel 1 (4G8) Kit (Meso Scale Diagnostics, MSD R©, Rockville, MD, USA), and the sAPPα/sAPPβ Multiplex Kit (Meso Scale Diagnostics, MSD R©, Rockville, MD, USA) according to the manufacturer’s instructions.

In the case of “N′-[[4-[4-[3-(Dimethylamino)propyl]-3-[4-[3-(dimethylamino)propyl]phenyl] Pyrazol-1-yl]phenyl]methyl]-N,N,N′-trimethyl-propane-1,3-diamine [Compound 33]”, the “sAPPα C1.5” value is reported as >10 µM.
